Values quoted from earlier work in patent US20200129637A1, “COMBINATION THERAPY WITH AN ANTI-AXL ANTIBODY-DRUG CONJUGATE” (ADC Therapeutics SA, priority 2017, published 2020).

Tests used:
AXL [1] = conditions: incubation of tumor cells with MEKi
AXL [2] = tested on: AXL
[3] = tested on: chronic lymphocytic leukaemia cells

Compound: O=C(NOC[C@H](O)CO)c1ccc(F)c(F)c1Nc1ccc(I)cc1F [PD325901]
- AXL on the membrane of tumor cells (AXL [1]): strong accumulation of AXL

Compound: Nc1nc(Nc2ccc3c(c2)CC[C@@H](N2CCCC2)CC3)nn1-c1cc2c(nn1)-c1ccccc1CCC2 [BGB324]
- Efficiency of the homologous recombination repair machinery (AXL [2]): diminish the efficiency
- Expression of DNA repair genes (AXL [2]): decrease expression of DNA repair genes

Compound: Fludarabine
- ERCC1 transcription [3]: suppress ERCC1 transcription

Compound: N#CC(=C(/N)Sc1ccccc1N)/C(C#N)=C(\N)Sc1ccccc1N [U0126]
- AXL on the membrane of tumor cells (AXL [1]): strong accumulation of AXL

Compound: CN1CCN(Cc2ccc(Nc3ncc(Cl)c(Nc4ccccc4S(=O)(=O)N(C)C)n3)cc2)CC1 [TP0903]
- Efficiency of the homologous recombination repair machinery (AXL [2]): diminish the efficiency
- Expression of DNA repair genes (AXL [2]): decrease expression of DNA repair genes
